From patent US11052091B2, “BRK inhibitory compound” (ONO PHARMACEUTICAL CO., LTD., priority 2016, dated 2021)

Assays:
Brk enzyme = Brk enzyme (Homo sapiens (Human), UniProt Q13882); assay: Measurement of Brk inhibitory activity (LanthaScreen TR-FRET); details: read-out: Brk inhibitory activity (IC50)
Experimental: Measurement of an inhibitory activity on Brk enzyme was performed by using LanthaScreen (registered trademark) system (Invitrogen) in accordance with the attached manual. Reagents used are described below.
Reaction Buffer: A solution containing 50 mmol/L HEPES (pH 7.5), 0.01% Brij 35, 10 mmol/L MgCl2 and 1 mmol/L EGTA was prepared by using purified water.
A solution of a test substance (the compound of the present invention): A solution of each concentration of a test compound in DMSO was diluted 20-fold with Reaction Buffer, and a solution containing a test compound at a concentration 5 times a final concentration was prepared. An enzyme solution: A solution containing 480 ng/mL of Brk enzyme was prepared by using Reaction Buffer. […] A detection solution: A solution containing 20 mmol/L of EDTA and 4 nmol/L of PY20 (Invitrogen) was prepared by using Dilution B (Invitrogen).
To a 96-well plate (Nunc), a solution of 10 mmol/L of a test compound in DMSO was dispensed, and further, a dilution series at a common ratio of three was prepared by using DMSO. […] The phosphorylation of the artificial substrate was quantified by Time-Resolved Fluorescence Resonance Energy Transfer (TR-FRET). […]

p38α = p38α (Homo sapiens (Human), UniProt Q16539); assay: Enzyme inhibitory activity on kinases other than Brk (selectivity), p38α; assay type: biochemical; details: compound concentration of 1 μmol/L; read-out: inhibition rates (%) p38α
Experimental: The compound of the present invention was dissolved in DMSO to prepare a solution with a concentration of 100 times the test concentration of 1 μmol/L. The solution was further diluted 25-fold with Assay Buffer (20 mmol/L HEPES, 0.01% Triton X-100, 2 mmol/L DTT, pH 7.5) to give a test substance solution. With regard to a positive control substance, a solution of the positive control substance was prepared in a similar manner.
Five microliters of a test substance solution with a concentration of four times prepared by using Assay Buffer, 5 μL of a solution of a substrate/ATP/a metal (Mg) with a concentration of four times and 10 μL of a solution of kinase with a concentration of two times were mixed in a well of a 384-well plate made of polypropylene, and the mixture was subjected to a reaction at room temperature for 1 hour. To the mixture, 60 μL of Termination Buffer (QuickScout Screening Assist MSA; Cama Biosciences, Inc.) was added to stop the reaction. The substrate peptide and the phosphorylated peptide in the reaction solution were separated, and were quantified. The kinase reaction was evaluated by a product ratio (P/(P+S)) calculated from a peak height (S) of the substrate peptide and a peak height (P) of the phosphorylated peptide. As other kinases, kinase selectivity experiments were performed using, for example, the p38α and Syk kinases. […]

Chain of p38α (Q16539 whole entry): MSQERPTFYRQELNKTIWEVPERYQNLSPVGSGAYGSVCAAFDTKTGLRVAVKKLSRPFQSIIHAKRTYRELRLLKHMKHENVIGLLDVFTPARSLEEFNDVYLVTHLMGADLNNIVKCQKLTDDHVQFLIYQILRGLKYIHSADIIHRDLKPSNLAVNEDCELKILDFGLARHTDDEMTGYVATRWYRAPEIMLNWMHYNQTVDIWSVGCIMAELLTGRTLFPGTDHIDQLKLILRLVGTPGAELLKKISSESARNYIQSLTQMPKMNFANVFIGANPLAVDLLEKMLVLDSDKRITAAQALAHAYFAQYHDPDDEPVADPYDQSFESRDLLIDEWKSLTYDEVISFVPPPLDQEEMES
Chain of Brk enzyme (Q13882 whole entry): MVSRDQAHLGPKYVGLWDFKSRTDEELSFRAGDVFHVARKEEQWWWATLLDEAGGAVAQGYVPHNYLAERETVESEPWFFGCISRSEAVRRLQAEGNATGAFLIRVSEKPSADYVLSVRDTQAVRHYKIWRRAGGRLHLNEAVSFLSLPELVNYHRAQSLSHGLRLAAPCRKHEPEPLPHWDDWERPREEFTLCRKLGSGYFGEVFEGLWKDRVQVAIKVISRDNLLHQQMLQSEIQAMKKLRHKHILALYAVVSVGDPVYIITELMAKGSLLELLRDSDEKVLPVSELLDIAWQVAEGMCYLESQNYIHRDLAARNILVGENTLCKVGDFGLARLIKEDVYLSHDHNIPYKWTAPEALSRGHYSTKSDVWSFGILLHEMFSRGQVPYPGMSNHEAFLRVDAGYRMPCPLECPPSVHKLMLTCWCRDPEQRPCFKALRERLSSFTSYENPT

IC50 (Brk enzyme) [nM] | inhibition at 1 µM (p38α) [%] | Compound
22 | – | 6-amino-2-{[2-difluoro-4-(methylsulfonyl)phenyl]amino}-7-(7-fluoro-1H-indazol-4-yl)-9-isopropyl-7,9-dihydro-8H-purin-8-one [Example 5-11]
– | ≤ 24 | CC(C)n1c(=O)n(-c2ccc(F)c3[nH]ncc23)c2c(N)nc(Nc3ccc(S(C)(=O)=O)cc3F)nc21 [Example 3, 6-amino-7-(7-fluoro-1H-indazol-4-yl)-2-{[2-fluoro-4-(methylsulfonyl)phenyl]amino}-9-isopropyl-7,9-dihydro-8H-purin-8-one]
